One data set concerns helminth. Put plainly: Compound was tested for antihelminthic activity; No activity. It is filed as functional.
Data set [1] in a line: Lethal dose in mice was determined. It is filed as toxicity, organism-based. The settings on record: mouse, in vivo.
The nature of data set [2]: Lethal dose in dog was determined. It is filed as toxicity, organism-based, Canis lupus familiaris. Particulars: in vivo.

Activity calls are given as the source filed them. The rule behind the calls is not given here.

As for `CN1C(=O)[C@]23CC4C1(CN2CC[C@@]3(C)O)CC1(C(=O)Nc2c1ccc1c2OC=CC(C)(C)O1)C4(C)C` (stereo partly drawn), in the data set on helminth, the outcome was inactive.

On to `CN1C(=O)[C@]23C[C@@H]4C(C)(C)[C@@]5(C[C@@]41CN2CC[C@@]3(C)O)C(=O)Nc1c5ccc2c1OC=CC(C)(C)O2` [Paraherquamide A], for which the LD50 in data set [1] was below 15 mg/kg; in data set [2] it was 0.5 mg/kg.

What is called LD50 is the dose at which mortality reaches 50%. Higher therefore signals a less toxic substance.

The values above are taken from ChEMBL document CHEMBL1134825, “Semi-synthesis of 2-deoxo- and 3-epi-paraherquamide A” (Bioorg Med Chem Lett, 2001).
